The results in this text go back to patent publication US20250179051A1, “PYRIMIDINLY-OXY-QUINOLINE BASED HERBICIDAL COMPOUNDS” (SYNGENTA CROP PROTECTION AG, priority 2022, published 2025).

Common to all, as to type: in vivo
Common to all, as to conditions: 250 g/ha, evaluated after 13 days, five-point scale

The subject of experiment [1] is Setaria faberi (SETFA). Description: Post-emergence herbicide glasshouse test. In short, it runs like this:
(§1)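 Glasshouse spray test at 250 g/ha, pre- or post-emergence (1 or 8 days after sowing). Percent injury scored 1–5 after 13 days.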

The subject of experiment [2] is Amaranthus retoflexus (AMARE). In words: Post-emergence herbicide glasshouse test. The essentials: as §1
The test system of experiment [3] is Amaranthus palmeri (AMAPA). Description: Post-emergence herbicide glasshouse test. In short, it runs like this:
as §1

Experiment [4] deals with Echinochloa crus-galli (ECHCG). In words: Post-emergence herbicide glasshouse test. The essentials:
as §1

Experiment [5] has as its system Ipomoea hederacea (IPOHE). In words: Post-emergence herbicide glasshouse test. In short, it runs like this: as §1
In experiment [6] the test system is Setaria faberi (SETFA). Description: Pre-emergence herbicide glasshouse test. The essentials: as §1
Experiment [7] deals with Amaranthus retoflexus (AMARE). Description: Pre-emergence herbicide glasshouse test. The essentials:
as §1

Experiment [8] deals with Amaranthus palmeri (AMAPA). Description: Pre-emergence herbicide glasshouse test. The essentials: as §1
The test system of experiment [9] is Echinochloa crus-galli (ECHCG). In words: Pre-emergence herbicide glasshouse test. The essentials:
as §1

The test system of experiment [10] is Ipomoea hederacea (IPOHE). Description: Pre-emergence herbicide glasshouse test. The essentials:
as §1

Molecules are shown by their SMILES.

Turning to `FC(F)(F)c1nc(CBr)c2c(Oc3ncc(Cl)cn3)cccc2n1` [Compound 1.048, 4-(bromomethyl)-5-(5-chloropyrimidin-2-yl)oxy-2-(trifluoromethyl)quinazoline], the “percentage damage caused to the plant, SETFA” value in experiment [1] and in [6] was 4 (4=61-80%) each time. The “percentage damage caused to the plant, AMARE” value in [2] and in [7] was 5 (5=81-100%) in each case. The “percentage damage caused to the plant, AMAPA” value in [3] is given as 4 (4=61-80%); in experiment [8] it was 5 (5=81-100%). The “percentage damage caused to the plant, ECHCG” value was 2 (2=21-40%) in experiment [4] and 3 (3=41-60%) in [9]. For the same compound, the entries for the “percentage damage caused to the plant, IPOHE” value in experiment [5] and in experiment [10] were 2 (2=21-40%) and 1 (1=0-20%), respectively.
With `Cc1ccc(Oc2ncc(Cl)cn2)c2c(CCC3CC3)nc(C(F)(F)F)nc12` [Compound 1.059], the “percentage damage caused to the plant, SETFA” value in [1] and in experiment [6] was 1 (1=0-20%) in each case. Further, the figures for the “percentage damage caused to the plant, AMARE” value in experiment [2] and in [7] were 2 (2=21-40%) and 1 (1=0-20%), respectively. The “percentage damage caused to the plant, AMAPA” value in [3] was 2 (2=21-40%); in experiment [8], 1 (1=0-20%). For the same compound, the “percentage damage caused to the plant, ECHCG” value in experiment [4] and in experiment [9] was 1 (1=0-20%) throughout. Further, the “percentage damage caused to the plant, IPOHE” value is 3 (3=41-60%) in experiment [5] and 1 (1=0-20%) in experiment [10].
Regarding `FC(F)(F)c1nc(CCC2CC2)c2c(Oc3ncc(Cl)cn3)ccc(Br)c2n1` [Compound 1.060], the “percentage damage caused to the plant, SETFA” value in experiment [1] and in [6] was 2 (2=21-40%) each time. The “percentage damage caused to the plant, AMARE” value in experiment [2] is listed as 3 (3=41-60%); in experiment [7] it was 1 (1=0-20%). The “percentage damage caused to the plant, AMAPA” value in experiment [3] was 3 (3=41-60%); in experiment [8], 2 (2=21-40%). For the same compound, the “percentage damage caused to the plant, ECHCG” value in experiment [4] and in experiment [9] was 1 (1=0-20%) each time. The “percentage damage caused to the plant, IPOHE” value is 3 (3=41-60%) in [5] and 1 (1=0-20%) in experiment [10].
`CC(=NOCC1CC1)c1nc(C(F)(F)F)nc2cccc(Oc3ncc(Cl)cn3)c12` [Compound 1.065]: the “percentage damage caused to the plant, SETFA” value in experiment [1] and in [6] was 1 (1=0-20%) throughout. Moreover, the “percentage damage caused to the plant, AMARE” value in experiment [2] is 2 (2=21-40%); in experiment [7], 1 (1=0-20%). For the same compound, the entries for the “percentage damage caused to the plant, AMAPA” value in experiment [3] and in [8] were 2 (2=21-40%) and 1 (1=0-20%), respectively. Further, the “percentage damage caused to the plant, ECHCG” value in [4] and in experiment [9] was 1 (1=0-20%) in each case. Further, the “percentage damage caused to the plant, IPOHE” value in [5] and in experiment [10] was 1 (1=0-20%) throughout.
`CON=C(C)c1nc(C(F)(F)F)nc2cccc(Oc3ncc(Cl)cn3)c12` [Compound 1.066]: the “percentage damage caused to the plant, SETFA” value in [1] and in experiment [6] was 1 (1=0-20%) in each case. Moreover, the “percentage damage caused to the plant, AMARE” value in [2] and in [7] was 1 (1=0-20%) each time. For the same compound, the “percentage damage caused to the plant, AMAPA” value in [3] is 2 (2=21-40%); in experiment [8], 4 (4=61-80%). In addition, the “percentage damage caused to the plant, ECHCG” value in experiment [4] and in [9] was 1 (1=0-20%) in each case. In addition, the “percentage damage caused to the plant, IPOHE” value in [5] and in experiment [10] was 1 (1=0-20%) throughout.
As for `C=CCON=CCCc1nc(C(F)(F)F)nc2cccc(Oc3ncc(Cl)cn3)c12` [Compound 1.067], the “percentage damage caused to the plant, SETFA” value in [1] and in experiment [6] was 5 (5=81-100%) each time. Further, the figures for the “percentage damage caused to the plant, AMARE” value in [2] and in experiment [7] were 4 (4=61-80%) and 3 (3=41-60%), respectively. The “percentage damage caused to the plant, AMAPA” value in experiment [3] and in experiment [8] was 5 (5=81-100%) each time. For the same compound, the “percentage damage caused to the plant, ECHCG” value in experiment [4] was 4 (4=61-80%); in [9] it was 5 (5=81-100%). Also, the “percentage damage caused to the plant, IPOHE” value in [5] was 3 (3=41-60%); in experiment [10] it was 1 (1=0-20%).
As for `FC(F)(F)c1nc(CCC=NOCC2CC2)c2c(Oc3ncc(Cl)cn3)cccc2n1` [Compound 1.068], the “percentage damage caused to the plant, SETFA” value in experiment [1] and in experiment [6] was 5 (5=81-100%) throughout. Moreover, the “percentage damage caused to the plant, AMARE” value in experiment [2] is given as 5 (5=81-100%); in experiment [7], 4 (4=61-80%). The “percentage damage caused to the plant, AMAPA” value in experiment [3] and in [8] was 5 (5=81-100%) in each case. The figures for the “percentage damage caused to the plant, ECHCG” value in experiment [4] and in experiment [9] were 5 (5=81-100%) and 3 (3=41-60%), respectively. The “percentage damage caused to the plant, IPOHE” value in experiment [5] and in [10] was 1 (1=0-20%) throughout.
As to `FC(F)(F)c1nc(-c2ncccn2)c2c(Oc3ncc(Cl)cn3)cccc2n1` [Compound 1.069], the “percentage damage caused to the plant, SETFA” value in experiment [1] and in experiment [6] was 1 (1=0-20%) in each case. In addition, the “percentage damage caused to the plant, AMARE” value in experiment [2] and in experiment [7] was 1 (1=0-20%) each time. In addition, the “percentage damage caused to the plant, AMAPA” value in experiment [3] and in [8] was 1 (1=0-20%) each time. For the same compound, the “percentage damage caused to the plant, ECHCG” value in experiment [4] and in experiment [9] was 1 (1=0-20%) throughout. The “percentage damage caused to the plant, IPOHE” value in experiment [5] and in experiment [10] was 1 (1=0-20%) in each case.
As to `O=C(c1ccc(Cl)cn1)c1nc(C(F)(F)F)nc2cccc(Oc3ncc(Cl)cn3)c12` [Compound 1.070], the “percentage damage caused to the plant, SETFA” value in [1] and in [6] was 1 (1=0-20%) in each case. In addition, the “percentage damage caused to the plant, AMARE” value in experiment [2] is recorded as 2 (2=21-40%); in experiment [7], 5 (5=81-100%). The results for the “percentage damage caused to the plant, AMAPA” value in [3] and in experiment [8] were 1 (1=0-20%) and 5 (5=81-100%), respectively. The “percentage damage caused to the plant, ECHCG” value in experiment [4] and in experiment [9] was 1 (1=0-20%) throughout. For the same compound, the “percentage damage caused to the plant, IPOHE” value in experiment [5] and in experiment [10] was 1 (1=0-20%) each time.
On to `FC(F)(F)CCC(Br)c1nc(C(F)(F)F)nc2cccc(Oc3ncc(Cl)cn3)c12` (stereo not shown) [Compound 1.071], for which the “percentage damage caused to the plant, SETFA” value is 4 (4=61-80%) in [1] and 5 (5=81-100%) in [6]. Besides, the “percentage damage caused to the plant, AMARE” value in [2] and in experiment [7] was 5 (5=81-100%) each time. In addition, the “percentage damage caused to the plant, AMAPA” value in [3] and in experiment [8] was 5 (5=81-100%) each time. Further, the “percentage damage caused to the plant, ECHCG” value in [4] and in experiment [9] was 5 (5=81-100%) throughout. Moreover, the “percentage damage caused to the plant, IPOHE” value in [5] was 3 (3=41-60%); in [10] it was 1 (1=0-20%).
